Reference: patent US8268877B2, “Microbiocides” (Syngenta Crop Protection, LLC, priority 2009, dated 2012)

Tests used:
[1] = tested on: Pyrenophora teres; assay: Action against Pyrenophora teres (net blotch), barley leaf segments, preventive; type: in vivo; conditions: foliar, 60 ppm active ingredient, sprayed before inoculation, assessed 4 dpi, read-out: inhibition (preventive fungicidal activity)
Description: (§1) Barley leaf segments are placed on agar in multiwell plates (24-well format) and sprayed with test solutions (60 ppm active ingredient). After drying, the leaf disks are inoculated with a spore suspension of the fungus. After appropriate incubation the activity of a compound is assessed 4 dpi (days after inoculation) as preventive fungicidal activity.

[2] = tested on: Fusarium culmorum; assay: whole plant or invertebrate; type: in vivo; conditions: in Triticum aestivum, read-out: inhibition (preventative fungicidal activity)
[3] = tested on: Fusarium graminearum, Syn. Gibberella zeae; assay: whole plant or invertebrate; type: in vivo; conditions: in Triticum aestivum, read-out: inhibition (preventative fungicidal activity)
[4] = tested on: Phaeosphaeria nodorum (Septoria nodorum); assay: Action against Phaeosphaeria nodorum/wheat/leaf disc preventative (glume blotch); type: in vivo; conditions: wheat leaf segments, 60 ppm active ingredient, sprayed before inoculation, assessed 4 dpi
Description: as §1, with “Wheat leaf segments” for “Barley leaf segments”, “agar in a multiwell plate” for “agar in multiwell plates”, “a multiwell plate (24-well format)” for “in multiwell plates (24-well format)”

[5] = tested on: Monographella nivalis (Microdochium nivale); assay: Action against Monographella nivalis/liquid culture (foot rot cereals); type: cell-based; conditions: liquid culture (PDB), 200 ppm active ingredient, 24° C., photometrically after 4-6 days
Description: Conidia of the fungus from cryogenic storage are directly mixed into nutrient broth (PDB potato dextrose broth). After placing a (DMSO) solution of the test compounds (200 ppm active ingredient) into a microtiter plate (96-well format) the nutrient broth containing the fungal spores is added. The test plates are incubated at 24° C. and the inhibition of growth is measured photometrically after 4-6 days.

[6] = tested on: Puccinia recondita; assay: Action against Puccinia recondita/wheat/leaf disc curative (brown rust); type: in vivo; conditions: wheat leaf segments, 200 ppm active ingredient, applied one day after inoculation, assessed 8 dpi
From the text: Wheat leaf segments are placed on agar in multiwell plates (24-well format). The leaf disks are then inoculated with a spore suspension of the fungus. One day after inoculation the test solution is applied (200 ppm active ingredient).

SMILES	inhibition (preventive fungicidal activity) [4] [%]	inhibition of growth [5] [%]	also measured
CON(C(=O)c1cn(C)nc1C(F)F)C(C)Cc1sc2ccc(Cl)cc2c1Cl (centres unmarked) [Compound 1.001, 3-Difluoromethyl-1-methyl-1H-pyrazole-4-carboxylic acid [2-(3,5-dichlorobenzo[b]thiophen-2-yl)-1-methyl-ethyl]methoxyamide]	–	–	inhibition at 60 ppm [1]: ≥ 80%; inhibition at 60 ppm [2]: ≥ 80%; inhibition at 60 ppm [3]: ≥ 80%; melting point: 129 to 131 °C
CON(C(=O)c1cn(C)nc1C(F)F)C(C)Cc1sc2cc(Cl)ccc2c1Cl (centres unmarked) [Compound 1.002]	80	80	–
CON(C(=O)c1cn(C)nc1C(F)F)C(C)Cc1sc2ccc(Br)cc2c1Cl (centres unmarked) [Compound 1.006]	80	80	inhibition (curative fungicidal activity) [6]: 80%
CC(Cc1sc2ccc(Cl)cc2c1Cl)N(O)C(=O)c1cn(C)nc1C(F)F (centres unmarked) [Compound 1.010]	–	80	–
COC(c1sc2cc(Cl)ccc2c1Cl)C(C)N(OC)C(=O)c1cn(C)nc1C(F)F (centres unmarked) [Compound 1.015]	80	80	–
COC(c1sc2ccc(Br)cc2c1Cl)C(C)N(OC)C(=O)c1cn(C)nc1C(F)F (centres unmarked) [Compound 1.016]	–	80	–
CON(C(=O)c1cn(C)nc1C(F)(F)F)C(C)Cc1sc2cc(Cl)ccc2c1Cl (centres unmarked) [Compound 2.002]	80	80	–
COC(c1sc2cc(Cl)ccc2c1Cl)C(C)N(OC)C(=O)c1cn(C)nc1C(F)(F)F (centres unmarked) [Compound 2.015]	–	80	–
CON(C(=O)c1c(C)nn(C)c1F)C(C)Cc1sc2cc(Cl)ccc2c1Cl (centres unmarked) [Compound 3.002]	80	–	–
